For this assay, the target named is T1, Savinase® 16.0L (Lederbergia lenta, UniProt P29600).
T1 construct: purchased Sigma-Aldrich
T1 sequence (P29600 1-269): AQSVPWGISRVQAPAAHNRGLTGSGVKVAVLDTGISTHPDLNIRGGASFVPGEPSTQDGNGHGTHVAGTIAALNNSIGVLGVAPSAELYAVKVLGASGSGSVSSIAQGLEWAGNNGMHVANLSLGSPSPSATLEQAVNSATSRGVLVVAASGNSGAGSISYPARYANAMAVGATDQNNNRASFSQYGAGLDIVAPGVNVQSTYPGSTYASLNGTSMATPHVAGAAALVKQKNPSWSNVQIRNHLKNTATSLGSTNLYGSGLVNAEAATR
As to the kind of experiment: Protease storage stability in liquid formulations at 37° C. (Suc-AAPF-pNA assay). It is filed as biochemical. The note with it: 0.7 wt% Savinase 16.0 L. The protocol:
The storage stability of protease was assessed at 37° C.
Base test formulations were manufactured by making base formulations I to V by mixing the components according to Table 1.
Protease used: Savinase® 16.0L (CAS-No. 9014-01-1, EC-No. 232-752-2) was purchased from Sigma-Aldrich.
The respective component (a) or comparative compound was added, if applicable, to the respective base formulation in amounts as indicated in Table 1.
The amount of protease as provided in Table 1 refers to active protein.
Water was added to accomplish the balance to 100.
Savinase activity at certain points in time as indicated in Table 2 was be determined by employing Succinyl-Ala-Ala-Pro-Phe-p-nitroanilide (Suc-AAPF-pNA, short AAPF) as substrate. pNA is cleaved from the substrate molecule by proteolytic cleavage, resulting in release of yellow color of free pNA which was determined by measuring OD405. Measurements were done at 20° C.
The proteolytic activity values provided in Table 3 were calculated referring to the 100% value determined in the reference formulation at the time 0.
The nomenclature of formulations is as follows: the Roman number before the full stop characterizes the base formulation, the Arabian number the type of compound (A. # compound according to invention (component (a)); (B. #) comparative compound).

[1] abbreviates: base formulation II, 2.5 wt% compound, 3 d.
The mark [2] stands for this setting: base formulation II, 2.5 wt% compound, 7 d.
Setting [3] is: base formulation II, 2.5 wt% compound, 14 d.
Where [4] appears, read: base formulation II, 2.5 wt% compound, 21 d.
Where [5] appears, read: base formulation II, 2.5 wt% compound, 28 d.
The mark [6] stands for this setting: base formulation II, 2.5 wt% compound, 35 d.
Where [7] appears, read: base formulation II, 2.5 wt% compound, T0.
Setting [8] is: base formulation III, 2.0 wt% compound, 3 d.
[9] abbreviates: base formulation III, 2.0 wt% compound, 7 d.
Where [10] appears, read: base formulation III, 2.0 wt% compound, 14 d.
Where [11] appears, read: base formulation III, 2.0 wt% compound, 21 d.
Setting [12] is: base formulation III, 2.0 wt% compound, 28 d.
The mark [13] stands for this setting: base formulation III, 2.0 wt% compound, 35 d.
Where [14] appears, read: base formulation V, 2.0 wt% compound, 3 d.
The mark [15] stands for this setting: base formulation V, 2.0 wt% compound, 7 d.
Where [16] appears, read: base formulation V, 2.0 wt% compound, 14 d.
[17] abbreviates: base formulation V, 2.0 wt% compound, 21 d.
Setting [18] is: base formulation V, 2.0 wt% compound, 28 d.
Setting [19] is: base formulation V, 2.0 wt% compound, 35 d.
Where [20] appears, read: base formulation I, 2.5 wt% compound, 3 d.
Setting [21] is: base formulation I, 2.5 wt% compound, 7 d.
[22] abbreviates: base formulation I, 2.5 wt% compound, 14 d.
Where [23] appears, read: base formulation I, 2.5 wt% compound, 21 d.
Setting [24] is: base formulation I, 2.5 wt% compound, 28 d.
[25] abbreviates: base formulation I, 2.5 wt% compound, 35 d.

Where a name gives a salt, the structure may show the parent alone.

As for `CCOC(=O)CC(O)(CC(=O)O)C(=O)O` (stereo not shown) [A.6, Monoethylcitrate], the “protease activity in the course of time of storage at 37° C.” value (from here on “protease activity in the course”) stood at 102% under setting [1]; 100% under setting [2]; 95% under setting [3]; 92% under setting [4]; 87% under setting [5]; 83% under setting [6]. In addition, the “protease activity in the course” value reads like this: under setting [7], 101%; under setting [8], 96%; under setting [9], 92%; under setting [10], 86%; under setting [11], 82%; under setting [12], 79%. The “protease activity in the course” value came out at 76% under setting [13] and 99% (base formulation III, 2.0 wt% compound, T0).

`O=C(CC(O)(CC(=O)OCc1ccccc1)C(=O)OCc1ccccc1)OCc1ccccc1` [A.8, Tribenzylcitrate]: the “protease activity in the course” value under setting [1] was determined as 94%; the “protease activity in the course” value under setting [2] stood at 91%; the “protease activity in the course” value under setting [3] was 88%; the “protease activity in the course” value under setting [4] was 85%; the “protease activity in the course” value under setting [5] stood at 83%; the “protease activity in the course” value under setting [6] came out at 77%. Besides, the “protease activity in the course” value reads like this: under setting [7], 100%; under setting [14], 96%; under setting [15], 92%; under setting [16], 86%; under setting [17], 84%; under setting [18], 80%. Moreover, the “protease activity in the course” value worked out at 73% under setting [19] and 96% (base formulation V, 2.0 wt% compound, T0).

Regarding `O=C(O)CC(O)(CC(=O)O)C(=O)O` [B.1, citric acid, reference compound], the “protease activity in the course” value stood at 94% under setting [20]; 86% under setting [21]; 76% under setting [22]; 67% under setting [23]; 62% under setting [24]; 57% under setting [25]. In addition, the “protease activity in the course” value is given as 92% under setting [8]; 84% under setting [9]; 75% under setting [10]; 65% under setting [11]; 60% under setting [12]; 53% under setting [13]. Besides, the “protease activity in the course” value under setting [14] is given as 93%; the “protease activity in the course” value under setting [15] amounted to 86%; the “protease activity in the course” value under setting [16] is 75%; the “protease activity in the course” value under setting [17] is 65%; the “protease activity in the course” value under setting [18] worked out at 57%; the “protease activity in the course” value under setting [19] is 50%.

Take `O=C(O)CC(O)(CC(=O)O)C(=O)O` [B.2, citric acid trisodium salt, reference compound]: the “protease activity in the course” value runs as follows: (base formulation I, 2.5 wt% compound, 3 d, trisodium salt) 95%; (base formulation I, 2.5 wt% compound, 7 d, trisodium salt) 84%; (base formulation I, 2.5 wt% compound, 14 d, trisodium salt) 68%; (base formulation I, 2.5 wt% compound, 21 d, trisodium salt) 64%; (base formulation I, 2.5 wt% compound, 28 d, trisodium salt) 59%; (base formulation I, 2.5 wt% compound, 35 d, trisodium salt) 55%. The “protease activity in the course” value under setting [1] turned out to be 95%; the “protease activity in the course” value under setting [2] was 82%; the “protease activity in the course” value under setting [3] was determined as 75%; the “protease activity in the course” value under setting [4] is given as 66%; the “protease activity in the course” value under setting [5] was 63%; the “protease activity in the course” value under setting [6] is 60%. For the same compound, the “protease activity in the course” value by setting is: (base formulation III, 2.0 wt% compound, 3 d, trisodium salt) 93%; (base formulation III, 2.0 wt% compound, 7 d, trisodium salt) 83%; (base formulation III, 2.0 wt% compound, 14 d, trisodium salt) 73%; (base formulation III, 2.0 wt% compound, 21 d, trisodium salt) 62%; (base formulation III, 2.0 wt% compound, 28 d, trisodium salt) 57%; (base formulation III, 2.0 wt% compound, 35 d, trisodium salt) 50%. Besides, the “protease activity in the course” value amounted to 91% (base formulation IV, 2.0 wt% compound, 3 d); 86% (base formulation IV, 2.0 wt% compound, 7 d); 70% (base formulation IV, 2.0 wt% compound, 14 d); 64% (base formulation IV, 2.0 wt% compound, 21 d); 58% (base formulation IV, 2.0 wt% compound, 28 d); 52% (base formulation IV, 2.0 wt% compound, 35 d).

Regarding `CCOC(=O)C(=O)OCC` [B.3, diethyloxalate, reference compound], the “protease activity in the course” value is, setting by setting: under setting [20], 90%; under setting [21], 86%; under setting [22], 70%; under setting [23], 65%; under setting [24], 62%; under setting [25], 58%. For the same compound, the “protease activity in the course” value turned out to be 92% under setting [8]; 85% under setting [9]; 74% under setting [10]; 60% under setting [11]; 55% under setting [12]; 51% under setting [13].

The record behind these values is patent US20210395650A1, “COMPOUNDS STABILIZING HYDROLASES IN LIQUIDS” (BASF SE, priority 2018, published 2021).
